Results reported in ChEMBL document CHEMBL1201862, “PubChem BioAssay data set” (2004).
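Five compound concentrations were applied to cells in 96-well plates for 48 hours; endpoints were derived by simple linear interpolation of the resulting dose-response curve. GI50 marks 50% less growth.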 Calls of active or inactive are those of the source. No stated cut-off is given here; in the data, active = GI50 up to about 1.1 µM and inactive = higher.

Assays:
Experiment in all cases: NCI-60 cell line screen, 48 h
786-0 = system: 786-0
A498 = system: A498
A549 = system: A549
ACHN = system: ACHN
BT-549 = system: BT-549
CAKI-1 = system: CAKI-1
CCRF-CEM = system: CCRF-CEM
COLO 205 = system: COLO 205
DU-145 = system: DU-145
EKVX = system: EKVX
HCC 2998 = system: HCC 2998
HCT-116 = system: HCT-116
HCT-15 = system: HCT-15
HL-60 = system: HL-60
HOP-62 = system: HOP-62
HOP-92 = system: HOP-92
HT-29 = system: HT-29
Hs-578T = system: Hs-578T
IGROV-1 = system: IGROV-1
K562 = system: K562
KM12 = system: KM12
LOX IMVI = system: LOX IMVI
M14 = system: M14
MCF7 = system: MCF7
MDA-MB-231 = system: MDA-MB-231
MDA-MB-435 = system: MDA-MB-435
MDA-N = system: MDA-N
MOLT-4 = system: MOLT-4
Malme-3M = system: Malme-3M
NCI-H226 = system: NCI-H226
NCI-H23 = system: NCI-H23
NCI-H460 = system: NCI-H460
NCI-H522 = system: NCI-H522
NCI/ADR-RES = system: NCI/ADR-RES
OVCAR-3 = system: OVCAR-3
OVCAR-4 = system: OVCAR-4
OVCAR-5 = system: OVCAR-5
OVCAR-8 = system: OVCAR-8
PC-3 = system: PC-3
RPMI-8226 = system: RPMI-8226
RXF 393 = system: RXF 393
SF-268 = system: SF-268
SF-295 = system: SF-295
SF-539 = system: SF-539
SK-MEL-28 = system: SK-MEL-28
SK-MEL-2 = system: SK-MEL-2
SK-MEL-5 = system: SK-MEL-5
SK-OV-3 = system: SK-OV-3
SN12C = system: SN12C
SNB-19 = system: SNB-19
SNB-75 = system: SNB-75
SR = system: SR
SW-620 = system: SW-620
T47D = system: T47D
TK-10 = system: TK-10
U-251 = system: U-251
UACC-257 = system: UACC-257
UACC-62 = system: UACC-62
UO-31 = system: UO-31

O=C1C2C3C4C1C1C2[C@H](OCc2ccccc2)C3C1[C@H]4OCc1ccccc1 (stereo partly drawn)
GI50 (786-0): > 100 µM (inactive)
GI50 (A498): > 100 µM (inactive)
GI50 (A549): 40.9 µM (inactive)
GI50 (ACHN): 47.6 µM (inactive)
GI50 (BT-549): > 100 µM (inactive)
GI50 (CAKI-1): 41.7 µM (inactive)
GI50 (CCRF-CEM): > 100 µM (inactive)
GI50 (COLO 205): 28.9 µM (inactive)
GI50 (DU-145): > 100 µM (inactive)
GI50 (EKVX): 27.6 µM (inactive)
GI50 (HCC 2998): 31.3 µM (inactive)
GI50 (HCT-116): 50.5 µM (inactive)
GI50 (HCT-15): 22.2 µM
GI50 (HL-60): 22.5 µM (inactive)
GI50 (HOP-62): 73.3 µM (inactive)
GI50 (HOP-92): 17 µM (inactive)
GI50 (HT-29): 15.2 µM (inactive)
GI50 (Hs-578T): 20.5 µM (inactive)
GI50 (IGROV-1): > 100 µM (inactive)
GI50 (K562): > 100 µM (inactive)
GI50 (KM12): 52.2 µM (inactive)
GI50 (LOX IMVI): 40.4 µM (inactive)
GI50 (M14): 51.8 µM (inactive)
GI50 (MCF7): > 100 µM (inactive)
GI50 (MDA-MB-231): 82 µM (inactive)
GI50 (MDA-MB-435): 61.4 µM (inactive)
GI50 (MDA-N): > 100 µM (inactive)
GI50 (MOLT-4): 50.1 µM (inactive)
GI50 (Malme-3M): 76 µM (inactive)
GI50 (NCI-H226): 76.9 µM (inactive)
GI50 (NCI-H23): 48.8 µM (inactive)
GI50 (NCI-H460): 49.8 µM (inactive)
GI50 (NCI-H522): 11.2 µM (inactive)
GI50 (NCI/ADR-RES): 19.7 µM (inactive)
GI50 (OVCAR-3): 60.5 µM (inactive)
GI50 (OVCAR-4): 70.3 µM (inactive)
GI50 (OVCAR-5): 24.3 µM (inactive)
GI50 (OVCAR-8): > 100 µM (inactive)
GI50 (PC-3): 36.1 µM (inactive)
GI50 (RPMI-8226): 36.6 µM (inactive)
GI50 (RXF 393): 31.8 µM (inactive)
GI50 (SF-268): 60.5 µM (inactive)
GI50 (SF-295): > 100 µM (inactive)
GI50 (SF-539): 75.2 µM (inactive)
GI50 (SK-MEL-28): 40.2 µM (inactive)
GI50 (SK-MEL-2): 51.2 µM (inactive)
GI50 (SK-MEL-5): 36.3 µM (inactive)
GI50 (SK-OV-3): > 100 µM (inactive)
GI50 (SN12C): > 100 µM (inactive)
GI50 (SNB-19): 67.9 µM (inactive)
GI50 (SNB-75): 38.9 µM (inactive)
GI50 (SR): 19.1 µM (inactive)
GI50 (SW-620): 46 µM (inactive)
GI50 (T47D): 34.4 µM (inactive)
GI50 (TK-10): > 100 µM (inactive)
GI50 (U-251): 77.3 µM (inactive)
GI50 (UACC-257): 33 µM (inactive)
GI50 (UACC-62): 41.5 µM (inactive)
GI50 (UO-31): 55.8 µM (inactive)

CC1(C)OC(C(=O)Nc2cc3c4ccccc4ccc3c3ccccc23)C(C(=O)N2CCCCC2)O1 (stereo not drawn)
GI50 (786-0): 1.77 µM (inactive)
GI50 (A498): > 23.9 µM (inactive)
GI50 (A549): 1.04 µM (active)
GI50 (ACHN): 0.897 µM (active)
GI50 (BT-549): 47 µM (inactive)
GI50 (CAKI-1): 0.493 µM (active)
GI50 (CCRF-CEM): 0.537 µM (active)
GI50 (COLO 205): 0.966 µM (active)
GI50 (DU-145): 5.97 µM (inactive)
GI50 (EKVX): > 54.8 µM (inactive)
GI50 (HCC 2998): > 74.1 µM (inactive)
GI50 (HCT-116): 0.507 µM (active)
GI50 (HCT-15): 0.419 µM
GI50 (HL-60): 1.41 µM (inactive)
GI50 (HOP-62): 17.6 µM (inactive)
GI50 (HOP-92): 31.6 µM (inactive)
GI50 (HT-29): 0.74 µM (active)
GI50 (Hs-578T): 3.72 µM (inactive)
GI50 (IGROV-1): 1.32 µM (inactive)
GI50 (K562): 0.619 µM (active)
GI50 (KM12): 2.18 µM (inactive)
GI50 (LOX IMVI): 0.344 µM (active)
GI50 (M14): 3.56 µM (inactive)
GI50 (MCF7): 1.16 µM (inactive)
GI50 (MDA-MB-231): > 38.9 µM (inactive)
GI50 (MDA-MB-435): 2.7 µM (inactive)
GI50 (MDA-N): 5.94 µM (inactive)
GI50 (MOLT-4): 0.574 µM (active)
GI50 (Malme-3M): > 100 µM (inactive)
GI50 (NCI-H226): 60.4 µM (inactive)
GI50 (NCI-H23): > 21.4 µM (inactive)
GI50 (NCI-H460): 0.385 µM (active)
GI50 (NCI-H522): 0.863 µM (active)
GI50 (NCI/ADR-RES): 2.08 µM (inactive)
GI50 (OVCAR-3): 2.29 µM (inactive)
GI50 (OVCAR-4): 21.5 µM (inactive)
GI50 (OVCAR-5): > 100 µM (inactive)
GI50 (OVCAR-8): 0.957 µM (active)
GI50 (PC-3): 3.33 µM (inactive)
GI50 (RPMI-8226): 0.592 µM (active)
GI50 (RXF 393): 1.17 µM (inactive)
GI50 (SF-268): 2.43 µM (inactive)
GI50 (SF-295): 1.32 µM (inactive)
GI50 (SF-539): 0.587 µM (active)
GI50 (SK-MEL-28): > 39.4 µM (inactive)
GI50 (SK-MEL-2): 9.18 µM (inactive)
GI50 (SK-MEL-5): 1.98 µM (inactive)
GI50 (SK-OV-3): 20.6 µM (inactive)
GI50 (SN12C): 9.18 µM (inactive)
GI50 (SNB-19): 4.2 µM (inactive)
GI50 (SNB-75): 2.74 µM (inactive)
GI50 (SR): 0.0964 µM (active)
GI50 (SW-620): 0.813 µM (active)
GI50 (T47D): 6.62 µM (inactive)
GI50 (TK-10): > 22.6 µM (inactive)
GI50 (U-251): 1.14 µM (inactive)
GI50 (UACC-257): > 25.1 µM (inactive)
GI50 (UACC-62): 1.17 µM (inactive)
GI50 (UO-31): 2.17 µM (inactive)
